Emax and EC50 data for 2 molecules are collected here from US20250145600A1, “2-((4-((S)-2-(4-CHLORO-2-FLUOROPHENYL)-2-METHYLBENZO[D][1,3]DIOXOL-4-YL)PIPERIDIN-1-YL)METHYL)-1-(((S)-OXETAN-2-YL)METHYL)-1H-IMIDAZOLE DERIVATIVES AS ACTIVATORS OF THE GLP1 RECEPTOR FOR THE TREATMENT OF OBESITY” (Novartis AG, priority 2022, published 2025).

For the test, the target named is human GLP1R (hGLP1R) (Homo sapiens, UniProt P43220). Description: Human GLP1R cAMP agonist assay (GloSensor cAMP Assay). The test is classed as cell-based. The note with it: HEK293-SNAP-hGLP1R-GloSensor cells; for Emax: cAMP activity as percent of GLP1 (7-36) EC100 control; for EC50: intracellular cAMP, 12 min at rt. How it is done: Compounds of formula (I) according to the invention were tested in the following cellular assays that measure the intracellular cAMP concentration, beta-arrestin recruitment and receptor internalization. The cAMP is generated by the activation of GLP1R. The extent to which the GLP1R is internalized into the cell and away from the plasma membrane following activation is also shown in Table 2. EC50 for each assay is defined as the concentration of the compound that leads to half of the maximum response (after baseline correction). Emax is defined as the maximum response observed for the test compound, normalized to the maximum response observed for the endogenous ligand (GLP1(7-36)) to GLP1R.
Human GLP1R cAMP Agonist Assay
The agonist activity of compounds was determined using the GloSensor™ cAMP Assay (Promega Corp.), which measures changes in the intracellular concentration of cAMP after ligand activation of GPCRs. The assay uses a biosensor encoded by pGloSensor™-22F cAMP plasmid (Promega, cat #E2301) with cAMP binding domains fused to a mutant form of Photinus pyralis luciferase. Binding to cAMP causes conformational changes that promote large increases in light output, which can be measured by a luminescence detector. HEK293-SNAP-hGLP1R-GloSensor cells stably overexpressing the human GLP1 receptor (hGLP1R) and pGloSensor™-22F were seeded in white 384-well poly-D-Lysine coated plates (Greiner Bio One, cat #781945) in CO2-independent media (Gibco cat #18045-088 with 1.0% FBS, 2 mM L-glutamine, penicillin and streptomycin) and incubated overnight at 37° C., 5% CO2 with humidity. The assay was started the following morning by adding an equal volume of CO2-independent media containing 4% v/v dilution of the GloSensor substrate (Promega, cat #E1291) to all wells. The cell plate was incubated at rt for 2 h in the dark. The Biomek 7 (Beckman Coulter) instrument was used for the liquid handling steps. To generate duplicate dose response curves, 3-fold serially diluted compounds were added in to the cell assay plate to a final volume of 60 μL with final concentrations ranging from 30 μM through 0.06 μM in CO2-independent media containing 0.1% BSA, 0.5 mM IBMX and 0.4% DMSO. In the same plate and assay buffer as the tested compounds, were EC100 control wells containing GLP1 (7-36) peptide (Bachem, cat #H-6795) at a final concentration of 2 nM and also EC0 control wells containing no peptide. This plate was incubated at rt in the dark for 12 min after adding the compounds to the cells. Luminescence was then measured with an Envision 2104 Multilabel reader with “TRF Light Unit, 337 nm” (PerkinElmer) using the Ultra-Sensitive protocol setting “384-well US luminescence detector” with the 384-well luminescence aperture, 0.1 seconds per well. cAMP activity was calculated as percent of the GLP1 (7-36) EC100 control wells: [(sample signal−mean EC0 signal)/(mean EC100 of GLP1 (7-36) signal−mean EC0 signal)}*100. Curve fitting for EC50 determinations was performed in the Helios module of the software package DAVID. The 4-parameter logistic model, Hill slope was used: y=Ainf+(A0−Ainf)/(1+(x/AC50)^Hill Slope) where y is the functional response; x is the compound concentration; A0 is the minimum value (at 0 dose); Ainf is the maximum value (at infinite dose); AC50 corresponds to the point of inflection (i.e. the point on the sigmoid shaped curve halfway between A0 and Ainf). The EC50 value was represented by the AC50 value calculated from Helios in μM. Emax is the maximal activity detected within the concentration range, derived from the fitted curve.
327 μL of Opti-MEM medium (Gibco, cat #31985-062) were mixed with 12 μL of FuGENE® HD (Promega, cat #E2311) and incubated at rt for 5 min. Then 8.2 μL (4 μg, 0.485 μg/μL solution) of pSNAP-hGLP1R plasmid (Cisbio, cat #PSNAP-GLP1) encoding human GLP1R (NCBI Reference Sequence: NM_002062.3) fused with Cisbio's SNAP tag was added in to the Fugene HD/Opti-MEM mix, and incubated at rt for 20 min. […]

human GLP1R (hGLP1R), sequence (P43220 24-463): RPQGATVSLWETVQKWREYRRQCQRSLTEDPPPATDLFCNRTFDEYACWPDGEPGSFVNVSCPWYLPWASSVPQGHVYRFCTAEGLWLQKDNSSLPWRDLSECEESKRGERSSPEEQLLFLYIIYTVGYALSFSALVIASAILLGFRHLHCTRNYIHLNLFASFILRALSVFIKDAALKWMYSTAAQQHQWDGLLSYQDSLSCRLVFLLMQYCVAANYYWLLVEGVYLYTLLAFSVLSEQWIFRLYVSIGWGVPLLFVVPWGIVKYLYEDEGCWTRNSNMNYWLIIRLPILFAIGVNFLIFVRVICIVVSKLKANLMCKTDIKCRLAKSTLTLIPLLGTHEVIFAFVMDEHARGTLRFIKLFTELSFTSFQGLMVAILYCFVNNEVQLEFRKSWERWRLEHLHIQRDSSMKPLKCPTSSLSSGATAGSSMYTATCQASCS

The molecule `CCc1oc(-c2c(C)nc(CN3CCC(c4cccc5c4O[C@@](C)(c4ccc(Cl)cc4F)O5)CC3)n2C[C@@H]2CCO2)nc1C(=O)O` [Compound C-10, 2-(2-((4-((S)-2-(4-chloro-2-fluorophenyl)-2-methylbenzo[d][1,3]dioxol-4-yl)piperidin-1-yl)methyl)-4-methyl-1-(((S)-oxetan-2-yl)methyl)-1H-imidazol-5-yl)-5-ethyloxazole-4-carboxylic acid] gave an Emax of 108% and an EC50 of 0.142 nM.
The corresponding values for `CCc1nc(CN2CCC(c3cccc4c3O[C@@](C)(c3ccc(Cl)cc3F)O4)CC2)n(C[C@H]2CCO2)c1-c1nc(C(=O)O)co1` [Compound C-7, 2-(2-((4-((S)-2-(4-chloro-2-fluorophenyl)-2-methylbenzo[d][1,3]dioxol-4-yl)piperidin-1-yl)methyl)-4-ethyl-1-(((R)-oxetan-2-yl)methyl)-1H-imidazol-5-yl)oxazole-4-carboxylic acid] are 118% and 0.0351 nM.
